Data reported in ChEMBL document CHEMBL1268963, “Identification of a sulfonoquinovosyldiacylglyceride from Azadirachta indica and studies on its cytotoxic activity and DNA binding properties” (Bioorg Med Chem Lett, 2010).

What was measured:
MOLT-4 = assay: […] in human MOLT4 cells after 24 to 72 hrs by MTT assay; assay type: functional, cell-based
Calf thymus DNA [1] = assay: Binding affinity to double strand calf thymus DNA assessed as melting temperature; assay type: nucleic-acid assay; settings: Bos taurus
Calf thymus DNA [2] = assay: Binding affinity to calf thymus DNA assessed as exothermic enthalpy at 20 degC by isothermal titration […]; assay type: nucleic-acid assay; settings: Bos taurus

IC50 (MOLT-4): 8.3 µM
Tm (Calf thymus DNA [1]): 62 °C
Ka (Calf thymus DNA [2]): 5.64 ×10⁴ /M
Compound: CCCCCCCCCCCCCCCC(=O)OCC(CO[C@H]1O[C@H](CS(=O)(=O)O)[C@@H](O)[C@H](O)[C@H]1O)OC(=O)CCCCCCCCCCCCCCC (stereo partly drawn)
